Data from patent US8742068B2, “Treatment and prevention of inflammatory diseases and autoimmune diseases” (Universiteit Utrecht Holding B.V., priority 2007, dated 2014).

How the values were obtained:
[1] = test system: DSS colitis; test: DSS colitis, peroral treatment (Prague study, 1st part, Example 3); type: in vivo, BALB/c mice
Method: Fifteen conventional female Balb/c female mice (7 to 9 weeks old) were randomly separated in […] (five mice each). To evaluate the efficacy of per oral treatment, the antigens (full length Mycobacterial HSP70 protein) were administered together with 1 mg of Soybean trypsin inhibitor (SBTI, Sigma) dissolved in 50 μl of 0.15 M sodium bicarbonate, by gavage 4 times in one week interval. After one week the mice received 3% dextran sodium sulfate (DSS) in their drinking water continuously for up to 7 days. Colitis was evaluated on day 35 by a clinical activity score, by colon length and histological score.
• treated: 100 μl of sterile PBS/SBTI intragastrically (Control group) Group B1 (HSP60+DSS): • treated: HSP60 30 μg/mouse in 100 μl of sterile PBS/SBTI (1:1) intragastrically Group C1 (HSP70+DSS): • treated: HSP70 30 μg/mouse in 100 μl of sterile PBS/SBTI (1:1) intragastrically Results

[2] = test system: proteoglycan induced arthritis; test: Proteoglycan induced arthritis (PGIA), intranasal pre-treatment; type: in vivo, Balb/c mice; settings: Example 8: 30 μg intranasally on day −7, −5 and −3 before disease induction
Excerpt: The proteoglycan induced arthritis model (PGIA) is a murine model of rheumatoid arthritis and is described to be a T-cell dependent and antibody mediated model. In the model arthritis is induced by two times injection of human proteoglycan (hPG) in a synthetic adjuvant dimethyldioctadecylammonium (DDA), see Hanyecz A. et al., Achievement of a synergistic adjuvant effect on arthritis induction by activation of innate immunity and forcing the immune response toward the Th1 phenotype. Arthritis Rheum. 2004 50(5):1665-76.
Because arthritis is induced by immunization with a synthetic adjuvant, instead of complete Freund's adjuvant (CFA), the role of interfering immune responses, induced by microbial Hsp's present in CFA, can be excluded. Due to cross reactive responses, between the human and the mouse (self) PG, a chronic and relapsing arthritis develops. After disease development, arthritis severity is scored by clinical assessment of thickness, redness and deformation of the joints on a scale of 1-4 per paw.
Ten female Balb/c mice, retired breeders obtained from Charles River, were randomly divided in two groups. To evaluate the effect of intra nasal treatment with Mycobacterial HSP70 (SEQ ID NO: 55) on PGIA 30 μg Hsp70 in 10 μl PBS was administered on day −7, −5 and −3 before disease induction. PGIA was induced by two times i.p. injection with 400 μg hPG and 2 mg DDA in 200 μl PBS. Subsequently developed arthritis scores were assessed by clinical evaluation as described in Example 7.
Fifteen female Balb/c mice, retired breeders obtained from Charles River, were randomly divided in three groups (five mice per group). To evaluate the effect of intranasal treatment with Hsp70-derived peptides “B1” (SEQ ID NO: 1) and a mixture of C1 (SEQ ID NO: 3) and mC1a (SEQ ID NO: 4) (designated herein as “C1mix”) on PGIA 100 μg peptide in 10 μl PBS was administered on day −7, −5 and −3 before disease induction. Ovalbumin peptide 323-339 (pOva) was used as a control peptide. PGIA was induced by two times i.p. injection with 400 μg hPG and 2 mg DDA in 200 μl PBS. Subsequently developed arthritis scores were assessed by clinical evaluation.
Twelve female Balb/c mice, retired breeders obtained from Charles River, were randomly divided in two groups (six mice per group). To evaluate the effect of intra nasal treatment with Hsp70 derived mC1 a on PGIA 100 μg peptide in 10 μl PBS was administered on day −14, −11, −7 and −4 before disease induction. Ovalbumin peptide (pOva) was used as a control peptide. PGIA was induced by two times i.p. injection with 400 μg hPG and 2 mg DDA in 200 μl PBS. Subsequently developed arthritis scores were assessed by clinical evaluation.
Eighteen female Balb/c mice, retired breeders obtained from Charles River, were randomly divided in three groups (six mice per group). To evaluate the effect of intranasal (i.n.) treatment with Hsp70 derived peptides C1 and its mouse homologue mC1a on PGIA 100 μg peptide in 10 μl PBS was administered on day −7, −5 and −3 before disease induction (see FIG. 28). Ovalbumin peptide (pOva) was used as a control peptide. PGIA was induced by two times i.p. injection with 300 μg hPG and 2 mg DDA in 200 μl PBS. Subsequently developed arthritis scores were assessed by clinical evaluation. • Group A: (pOva): Treated with 100 μg pOva in 10 μl PBS intranasally • Group B (C1): Treated with 100 μg C1 in 10 μl PBS intranasally • Group C (mC1a): Treated with 100 μg mC1a in 10 μl PBS intranasally

[3] = test system: TNBS-induced colitis; test: TNBS colitis (Example 6); type: in vivo, BALB/c mice
Method: Female BALB/c mice (Charles River-Germany), 10-12 weeks of age at start of the experiment, were either treated intragastrically or intranasally with full HSP70 [SEQ ID NO: 55] or HSP70 peptides (Mycobacterial HSP70 derived peptide “C1” shown in SEQ ID NO: 3 and mouse homologue peptide “mC1a” of SEQ ID NO: 4) prior to disease induction. Mice received 4×30 μg HSP70 intragastrically, in a period of 4 weeks. Stomach contents were neutralized by administering soybean trypsin inhibitor (SBTI) 10 minutes prior to oral HSP70 administration.
Intranasal treatment was performed with 4×30 μg HSP70 or 4×(67 μg peptide C1 (Mycobacterial tub. HSP70 peptide 141-155, VLRIVNEPTAAALAY) mixed with 33 μg peptide mC1a (=mouse Grp75 (hspa9) peptide 216-230, […])), in a period of 1 week.
Next, mice were sensitized by painting the shaved abdomen with 1 mg of TNBS in 100 μl 50% ethanol on two consecutive days, followed by a rectal challenge with 1 mg TNBS in 100 μl 40% ethanol, after 6 days. Mice were dissected 3 days later, and colonic inflammation was determined based on colon length, weight and morphology. Furthermore, cytokine production within colon and draining caudal lymph nodes (CLN) were determined.
• A. Oral PBS, sensitization TNBS, challenge TNBS (control group) • B. Oral (full length) HSP70, sensitization TNBS, challenge TNBS (oral group) • C. […]

[4] = test system: adjuvant arthritis; settings: in vivo; cited from earlier work
[5] = 30 μg/mouse intragastrically with SBTI, 4 times before 3% DSS, 5 mice
[6] = Multiple Range Tests, * p < 0.05

In the case of “HSP70: full length Mycobacterial HSP70 protein (SEQ ID NO: 55)”, the “Histological grade, Average” value [1, 5] is reported as 1.4, the “Weight change, Average” value [1, 5] is reported as −2.04 and the “Colon length, Average” value ([1]; 30 μg/mouse intragastrically with SBTI, 4 times in one week interval before 3% DSS, day 35, 5 mice) is reported as 6.36. For the same substance, the “Clinical state, Difference (contrast PBS minus treatment)” value [1, 6] was “*1.3332”, the “Colon length, Difference (contrast PBS minus treatment)” value [1, 6] was −0.2 and the “Histological grade, Difference (contrast PBS minus treatment)” value [1, 6] was “*0.75”. The “Weight change, Difference (contrast PBS minus treatment)” value [1, 6] was “*−6.52”, the effect on colitis ([1]; administered orally, prophylactically (prior to disease induction)) was “suppressive effect on colitis” and the “Clinical state, Average” value ([1]; total score of weight loss, stool consistency, bleeding divided by 3, 30 μg/mouse intragastrically, 5 mice) was 2.1334. For the same substance, the “arthritis development (arthritis score)” value [2] was “can suppress arthritis development”, the “IL-10 responses in the caudal lymphnodes” value ([3]; orally given, CD3/CD28 restimulation of draining lymph node cells) was “elevated IL-10 responses” and the “effect on TNBS induced colitis” value ([3]; prophylactically, HSP70 4x30 μg orally or intranasally, peptides 4x(67 μg C1 + 33 μg mC1a) intranasally) was “suppressive effect on TNBS induced colitis”. For the same substance, the “development of adjuvant arthritis” value [4] was “reduce the development of adjuvant arthritis”.
